In patent EP1212309B1, “CASPASE INHIBITOR” (LG Chem Investment, Ltd., priority 1999, dated 2001):

What was measured:
[1] = tested on: Recombinant human caspase; assay: Inhibition of caspase activity in cell free system (chromogenic pNA substrates); type: biochemical; conditions: 100 µM compound, caspase-1, -2, -3, -4, -6, -7, -8 and -9, 200 µM chromogenic substrate, 37°C
Procedure: The pharmacological efficacy of the compound according to the present invention was evaluated by the following experiments. Con A was purchased from Boehringer Mannheim GmbH (Mannheim, Germany). Peptide-based substrates of caspases (Ac-YVAD-pNA for caspase-1, Ac-VDVAD for caspase-2, Ac-DEVD-pNA for caspase-3, 7, 8, and 9, Ac-LEVD-pNA for caspase-4, and Ac-VEID-pNA for caspase-6) and peptide-based caspase inhibitors (Ac-DEVD-fmk, z-VAD-CHO) were purchased from Alexis Co. (San Diego, CA). Ac-DEVD-CHO and z-DEVD-cmk were purchased from Bachem; Anti Fas antibody was purchased from Oncor (Cat#A8050); WI38 cell was available from ATCC; IFN-gamma was purchased from LG Pharmaceuticals (Korea). All cell culture-media and supplements were purchased from Gibco BRL (Tsuen Wan, Hong Kong) unless mentioned otherwise. […]
Caspase activity was tested by measuring proteolytic cleavage of peptide-based chromogenic substrate by each enzyme. […] Aliquots of the enzyme (2 µℓ containing catalytic activity of 0.2 absorbance at 405 nm/h) were mixed with 150 µℓ of 200 µM chromogenic substrate in the presence or absence of 100 µM compound 33 in 96-well plates. […] The absorbance of enzymatically released pNA was measured discontinuously at 405 nm in a microplate reader for I hr. The caspase activity was calculated from initial velocity (mean± SE)(n=4, in which n represents the number of repeated experiment).

[2] = tested on: Con A-induced acute hapatitis mice; assay: Con A-induced acute hepatitis in mice: plasma aminotransferase activity; type: in vivo, Balb/c mice
Procedure: Female 6-week-old Balb/c mice (Charles River Laboratory, Osaka, Japan) were kept at 22 °C and 55% relative humidity in a 12-h day/night rhythm with free access to food and water. Con A was dissolved in pyrogen-free saline to a concentration of 2.5 mg/ml and was injected via the tail vein in an amount of 20mg/kg based on Con A. The animals were i.p. injected twice with compound 33 dissolved into a vehicle which consists of olive oil and 10% DMSO, or a vehicle alone, at 1 hr before and 4h after Con A injection. Animals were sacrificed by cervical dislocation at 24 hrs after Con A injection to obtain liver and blood samples.
Blood samples obtained at step 1 were collected at 24h after Con A injection. Plasma AST and ALT activity were measured using Autokit (Youngdong Pharmaceutical Co., Seoul, Korea) following manufacturer's instruction.

[3] = tested on: hepatocytes in ConA-treated mouse liver; assay: Con A-treated mouse liver: histologic examination and detection of apoptosis (H&E, TUNEL); type: in vivo; conditions: ConA-treated mice, compound 33 4, 20, 100mg/kg
Procedure: The present inventors estimated the prevalence of apoptotic cells in the mouse liver to certify the apoptosis-blocking effect of the compound of the present invention specifically in hepatocytes. Mice were treated ConA in the presence or absence of various dosages of compound 33 [A and G: ConA and vehicle treatment, B and H: ConA and compound 33 4mg/kg treatment, C and I: ConA and compound 33 20mg/kg treatment, D and J: ConA and compound 33 100mg/kg treatment] to prepare frozen liver sections. Also, mice were treated with PBS and vehicle (E and K), or PBS and compound 33 100mg/kg (F and L) to prepare frozen liver sections. Freshly excised mouse liver was immediately immersed in 25 % sucrose solution at 4 °C for overnight, then frozen in liquid nitrogen, and cryosectioned into 4 µm.
For histological examination, liver sections were fixed in 1% buffered paraformaldehyde and stained with hematoxilin & eosin (Fig. 6A to F). To detect apoptotic cells in liver, frozen liver was stained using an ApopTag in situ apoptosis peroxidase detection kit (terminal deoxynucleotidyl transferase-mediated dUTP nick end labeling: TUNEL assay) (Oncor, Gaithersburg, MD) and DAKO liquid DAB (DAKO, Carpinteria, CA)(Fig. 6G to L). Staining was conducted according to manufacturer's instruction. After completion of staining, the samples were observed under an optical microscope. […]

PARP cleavage = assay: Con A-treated mouse liver: Western blotting of PARP cleavage; type: in vivo; conditions: liver lysate of Con A-treated mice, various doses, Western blot
Procedure: In this experiment, the cleavage of PARP was identified by the appearance on Western blot analysis of an 85 kDa-cleavage product in hepatic cell lysate obtained from mice treated with Con A and various doses of the compound of formula (I).
Freshly harvested livers treated with Con A or PBS together with various doses of compound 33 were rinsed in cold PBS and homogenized into three volumes per weight of cold PBS containing 1% Nonidet P-40, 0.1 % SDS, 1 mM PMSF, and protease inhibitor cocktail tablet Complete™ (Boehnger Mannheim, used according to manufacturer's instruction). The homogenates were incubated on ice for 30 min. Samples were then centrifuged at 16,000 x g for 30 min at 4°C. Supernatants were transferred to fresh tubes and centrifuged for additional 30 min. Harvested lysates were precleared by incubating with protein G-sepharose (Pharmacia, Uppsala, Sweden) at 4 °C for overnight, gently shaking. Supernatants were harvested by centrifugation at 1000 x g for 30 sec. at 4 °C and separated on 7 % SDS-polyacrylamide gel and transferred to nitrocellulose membrane. Blots were blocked for 1 hr at room temperature in PBS containing 5% skimmed milk and 0.1% Tween 20 under gentle shaking. Membranes were then incubated overnight with 1:1000 diluted monoclonal anti-PARP antibody (Pharmingen) under gentle shaking. […]

WI38 cells = assay: Protection from IFNγ and anti-Fas antibody-induced apoptosis (XTT); type: cell-based, human; conditions: 100% when Fas antibody was not treated; for viability ratio: WI38 cells
Procedure: WI38 cells (human embryonal lung fibroblast) were grown in a medium containing DMEM-10% FBS within 10cm diameter dishes until reaching at confluency. The cells were seeded into a 24-well plate at day 1 and incubated overnight while the volume of medium was maintained to 400µℓ. […] At day 3, each 100 µℓ of test compound was added to the cells after diluting the 10mM stock compound in DMSO to final concentrations of 50, 10, 2, and 0.4 µ M, respectively. The cells were incubated for 2 hrs in order for allowing the compound to enter into the cells and then treated with 40ng/well of anti-Fas antibody(apoptosis was induced 2 hrs after antibody was treated and the incubation was continued overnight). The control was not treated with Fas antibody. […] After coloring, 100-200µℓ of the supernatant was transferred to a 96-well plate and the absorbance at 490 nm was read with ELISA plate reader. For the blank, XTT solution was added to the well containing the medium only. Plotting was determined by comparing with the control group (100% when Fas antibody was not treated).

CC(C)[C@H](NC(=O)c1cccc2ccccc12)C1=NOC(Cc2ccccc2)(C(=O)N[C@@H](CC(=O)O)C(=O)COC(=O)c2c(Cl)cccc2Cl)C1 (stereo partly drawn) [Compound 33, (3S)-3-{3-[2-methyl-(1S)-1-(1-naphthalenecarbonylamino)-propyl]-5-phenylmethyl-4,5-dihydro-isoxazole-5-carbonylamino}-4-keto-5-(2,6-dichlorobenzoyloxy)-pentanoic acid]
inhibition of recombinant caspase activity [1]: almost completely inhibited all tested caspase activity, only except for caspase 2
AST and ALT activity, difference to Con A/vehicle group ([2]; 4mg/kg compound 33, second experiment (AST p=0.2972, ALT p=0.1378)): did not reached at statistically significant level
AST and ALT activities compared with ConA/vehicle group ([2]; 20 mg/kg compound 33 (AST p=0.0174, ALT p=0.0011)): definitely reduced
AST activity by the compound itself (liver toxicity) ([2]; compound alone without Con A, first experiment, not statistically significant (p=0.1033)): slightly increased AST activity by itself
serum AST and ALT activity elevated by ConA ([2]; i.p. twice, 1 hr before and 4h after Con A 20mg/kg i.v., blood at 24h, across doses): suppressed the elevated enzyme activities in a dose-dependent manner
apoptotic lesions in liver [3]: reduced dose-dependently
cellular histology of liver [3]: gradually recovered with increasing dose
PARP cleavage (85 kDa-cleavage product) caused by Con A-induced apoptotic death of hepatic cells (PARP cleavage): gradually reduced as dose of compound 33 is increased
viability at 0.4 µM (WI38 cells; Homo sapiens, WI-38, WI38 cells, Conc. 0.4 µM, read-out: viability ratio): 15.5%
viability at 2 µM (WI38 cells; Homo sapiens, WI-38, WI38 cells, Conc. 2 µM, read-out: viability ratio): 64.4%
viability at 10 µM (WI38 cells; Homo sapiens, WI-38, WI38 cells, Conc. 10 µM, read-out: viability ratio): 92.7%
viability at 50 µM (WI38 cells; Homo sapiens, WI-38, WI38 cells, Conc. 50 µM, read-out: viability ratio): 100%
viability ratio (WI38 cells; Conc. 50 µM, 50 µM): 100%
viability ratio (WI38 cells; Conc. 50 µM, listed as Comp 33, 50 µM): 100.21%
